One test deals with H358. The experiment in a line: In vitro functional assays in H358 over-expressing full-length OPNa. Format: cell-based. The following applies: H358, addition of the exon 4 peptide. On the procedure:
(§1) In vitro invasion, migration, proliferation and soft agar colony formation assays were performed using the H358, A549 and H460 cell lines as previously described (Goparaju et al. “Functional Heterogeneity of Osteopontin Isoforms in Non-small Cell Lung Cancer,” J Thorac Oncol 5:1516-23 (2010), which is hereby incorporated by reference in its entirety) with 100 nM of exon 4 peptide or scrambled sham peptide in experimental medium. Experiments were performed in triplicates and comparisons of effect were made between peptide and sham within each cell line.
The effects of mutated OPN and the exon 4 peptide in H358, a NSCLC cell line with low endogenous OPN expression, were insightful. This cell line has low malignant potential; however, malignant properties are increased by over-expression of full-length OPNa, but not by over-expression of OPNc or the PDAV-deleted mutant. Further, the tumorigenic effects of full-length OPNa over-expression are abolished by addition of the exon 4 peptide in this cell line.

For test [1], the system named is H358, A549 and H460 cell lines. Put plainly: In vitro proliferation assay. Format: cell-based. On the procedure: as §1
The test system of a further test is A549 cells. The experiment in a line: Cisplatin sensitivity assay (Cell Titer Blue survival). The conditions noted are these: 100 nM peptide, cisplatin concentrations of 0.1-0.8 μM/ml, 48 h, FIG. 7E. It counts as cell-based. On the procedure: The effect of exon 4 peptide on sensitivity to cisplatin was evaluated by plating 10,000 A549 cells/well in a 96-well plate in triplicates. Five hours later, the medium was changed to DMEM containing 100 nM of exon 4 peptide, 100 nM of scrambled sham peptide, or no peptide. Fifteen minutes later, the medium was changed to DMEM containing […] of cisplatin for 48 h at 37° C. The cells were then assayed for survival by adding […] of Cell Titer Blue reagent for 1 h. The fluorescence was read at 560/590λ.
On the technique in general: The colour change of resazurin is a common sign of viable cells or microbes.

The test system of test [2] is EMT targets in H358, A549 and H460 cell lines. The experiment in a line: Relative expression of EMT targets by quantitative RT-PCR in peptide treated cells. It counts as cell-based. The text has this:
Here, mRNA was extracted from peptide treated cells and the relative expression of EMT targets evaluated by quantitative RT-PCR.

Test [3] concerns H358, A549 and H460 cell lines. The experiment in a line: In vitro invasion assay. It counts as cell-based. As for the experimental part: as §1
Test [4] deals with H358, A549 and H460 cell lines. The experiment in a line: Apoptosis assay. Format: cell-based.
In the next test the test system is NSCLC cell surface. Put plainly: NSCLC cell surface binding / competitive binding assay with fluorescent (FAM) labeled peptide. The conditions noted are these: for binding of fluorescently labeled peptide to the surface of the NSCLC cell lines: 100 nM FAM labeled peptide, 1 hour, FIG. 6A; for displacement of fluorescent labeled exon 4 peptide from the NSCLC cell surface by competitor: recombinant protein as competitor, 30 minutes, FIGS. 6B, 6C. It counts as cell-based. As for the experimental part: More particularly, the peptide mimic sequence was selected that contained the PDAV region, along with a scrambled sham of the same length. Peptides were constructed and fluorescent (FAM) labeled by Think peptides (Proimmune, Sarasota, Fla.). NSCLC cell surface binding was assayed by seeding ten thousand NSCLC cells per well in a 96-well plate and allowing them to sit for overnight at 37° C. The cells were treated with 100 nM of FAM labeled Exon4 and FAM labeled scrambled peptide for 1 hour and then gently washed with 0.1% BSA in PBS for three times followed by treating with recombinant Osteopontin at 1 uM, 500 nM, 250 nM, 125 nM, 62.5 nM and 31.25 nM for 30 minutes. The cells are then washed thrice with 0.1% BSA in PBS and measured the fluorescence at […].

In test [5] the target is membrane-associated protein complex on NSCLC cells (un-described cell surface receptor for OPN exon 4; H358, A549 and H460 cell surface). Put plainly: cell-based or functional assay.
The mark [6] stands for this setting: H358 cells with low endogenous OPN expression.

No end group written: not given here.

Consider “KYPDAVATWLNPDPSQK (also: FAM label) [exon 4 peptide]”, for which the “tumorigenic effects of full-length OPNa over-expression” value with H358 is on record as “abolished”. In addition, the proliferation entry is given as “less impact” in test [1] (setting [6]); “decreased” in test [1] (cells with high endogenous OPN expression (A549 and H460), 100 nM peptide in media, FIG. 7A). Moreover, the “decrease in cell viability compared to untreated or scrambled peptide (cisplatin sensitivity)” value in the test with A549 cells is reported as 2 fold. Also, the “relative expression of TFGb1-r” value in test [2] (A549 and H460 cell lines, FIG. 9A) was “significant decrease”. Besides, in test [2] (A549 and H460 cell lines, FIG. 9B), the “relative expression of N-cadherin” value was “significant decrease”. In test [2] (A549 and H460 cell lines, FIG. 9C), the “relative expression of desmoplakin” value is given as “significant increase”. The “relative expression of cytokeratin-20” value in test [2] (A549 and H460 cell lines, FIG. 9D) is given as “significant increase”. In test [2] (H358 cell line with low endogenous OPN), the “relative expression of the same EMT markers (TFGb1-r, N-cadherin, desmoplakin, cytokeratin-20)” value is given as “lesser impact”. Moreover, in test [3] (FIG. 7D), the invasive capacity entry is recorded as “decrease”. Further, the invasion result is reported as “less impact” in test [3] (setting [6]); “decreased” in test [3] (cells with high endogenous OPN expression (A549 and H460), 100 nM peptide in media, FIGS. 7B and 7D). In addition, in test [3] (exon 4 peptide added to exogenous rOPNa, FIG. 7D), the “impact of exogenous rOPNa on invasion” value is reported as “blocks”. Moreover, the apoptosis result in test [4] (setting [6]) is “less impact”; in test [4] (cells with high endogenous OPN expression (A549 and H460), peptide in media, FIG. 7C) it was “increased”. Also, the “binding of fluorescently labeled peptide to the surface of the NSCLC cell lines” value with NSCLC cell surface was “specifically binds”.
Regarding “rOPNa: recombinant full-length OPN (rOPNa, R&D, Minneapolis, Minn.)”, the “displacement of fluorescent labeled exon 4 peptide from the NSCLC cell surface by competitor” value is reported as “displaced by molar equivalents” in the test with NSCLC cell surface and “able to compete the peptide off the cell surface” with NSCLC cell surface (listed as recombinant OPN).
Regarding “WQKPAPLDTDPKVYANS (Scrambled Sham Peptide) [scrambled sham control of the same length as the peptide mimic, reference compound]”, the “binding of fluorescently labeled peptide to the surface of the NSCLC cell lines” value in the test with NSCLC cell surface is given as “does not”.
In test [5], KYPDAVATWLNPDPSQK (also: FAM label, position not given here) returned a fold decrease in cell viability under cisplatin (cisplatin sensitivity, A549) of 2 fold.

The values are drawn from patent US20150004157A1, “OSTEOPONTIN ISOFORM A INHIBITORS AND METHODS OF USE” (NEW YORK UNIVERSITY, priority 2012, published 2015).
